Experimental data reported in patent US6340754B1, “Phosphorus containing cyclic nucleotides” (priority 1998, dated 2002).

Assays:
[1] = system: cell free culture supernatant (fraction A) of Serratia marcescens, cyclic nucleotide phosphodiesterase activity; experiment: Activity assay, fraction A: cell free culture supernatant, HPLC detection of substrate and products; assay type: biochemical, Serratia marcescens strain DSM 30121; settings: 40 μl of 100 mM substrate in 400 μl, overnight at 30° C.
Experimental: (§1) The substrates used for enzyme activity assays are dissolved in phosphate buffer pH 7.0 to the required concentration.
One single colony is subsequently used to inoculate 25 ml of LB Broth contained in a 100-ml shake-flask. This culture is then incubated at 30° C. and shaken at 200 rpm (Infors HT Shaker, Infors AG, Bottmingen, Switzerland) for another 48 hrs.
(§2) After incubation, the whole volume of the culture is centrifuged at 9000 rpm for 20 minutes at ca. 4° C. (DuPont Instruments Sorvall® RC-5B Refrigerated Superspeed Centrifuge, Digitana AG, Horgen, Switzerland; rotor SS-34).
The supernatant (fraction A) is recuperated and 360 μl are placed in an Eppendorf tube. Fourty μl of a 100 mM solution of substrate are then added to the reaction mixture and incubated overnight at 30° C.
After 5 minutes of extraction at room temperature, the tubes are centrifugated at 14 000 rpm for 5 minutes (Bench Centrifuge Biofuge 15) and the supernatant transfered to HPLC tubes for analysis.
Blanks are made with the substrate solution being replaced by an equivalent volume of phosphate buffer pH 7.0.
The activity is qualitatively determined by observing the appearance of the substrate and product(s) of the activity assay as peaks on a HPLC profile. […] A peak showing on the assay's chromatogramme at the same or at a very close retention time as that of a standard, and moreover absent from the blank, is considered to be the same compound as the standard with a minimum risk of error.
The solvent system is composed of 10 mm phosphate buffer, pH 4.0 (solvent A) and Methanol (solvent B) and two different gradients are applied depending on whether natural or modified nucleotides are used for the assay:
The HPLC profiles obtained for the activity assays are compared with profiles of standards in order to identify the peaks.

[2] = system: Intact cells (fraction B) of Serratia marcescens; experiment: Activity assay, fraction B: whole-cell suspension, HPLC detection of substrate and products; assay type: cell-based, Serratia marcescens strain DSM 30121; settings: 10 mM substrate solution, overnight at 30° C.
Experimental: as §1
Serratia marcescens strain DSM 30121 is grown for 48 hrs in Petri dishes containing Luria-Bertani [LB] Agar (1% Tryptone [Merck 07213]; 0.5% Yeast Extract [Fluka 70161]; 86 mM NaCl [Fluka 71382]; 50 mM Tris-HCl, pH 7.5 [Merck 8382]; 1.5% Bacto-Agar [Difco 0140-01]) at 30° C. (Memmert Incubator, Haska AG, Bern, Switzerland). One single colony is subsequently used to inoculate 25 ml of LB Broth contained in a 100-ml shake-flask. This culture is then incubated at 30° C. and shaken at 200 rpm (Infors HT Shaker, Infors AG, Bottmingen, Switzerland) for another 48 hrs.
as §2
The pellet is resuspended in 1 ml of distilled water and 40 μl of this whole-cell suspension (fraction B) are placed in an Eppendorf tube to which 360 μl of a 10 mM solution of the substrate are added. The incubation conditions are the same as for the supernatant fraction. […]
The activity is qualitatively determined by observing the appearance of the substrate and product(s) of the activity assay as peaks on a HPLC profile. […]

Structure (SMILES)	hydrolysis / degradation of substrate [1]	degradation of added substrate [2]
COCCO[C@@H]1[C@@H]2OP(=O)(O)OC[C@H]2O[C@H]1n1cnc2c(N)ncnc21 [2′MOE CAMP, 2′-O(2-Methoxyethyl)-adenosine 3′,5′-cyclic-phosphate]	about 50%	about 85%
Nc1ccn([C@@H]2O[C@@H]3COP(=O)(O)O[C@H]3[C@H]2O)c(=O)n1 [cCMP]	ca. 10%	–
O=c1[nH]cnc2c1ncn2[C@@H]1O[C@@H]2COP(=O)(O)O[C@H]2[C@H]1O [cIMP]	85-89%	–
